Reference: article PMC12777510 (Chempluschem, 2025)
Converted amounts (≈) assume the structure as drawn. Read-outs that look alike come from different tables or passages of the source. *1 amine or outer side, *2 acyl side, *3 side chain or, on linkers, in order; H or OH if unused. Where a SMILES comes first, the peptide text is derived from it. [ ]: non-standard residue; d: D form. X2 = O=C([C@@H](Cc1cc(C(F)(F)F)c(O)c(C(F)(F)F)c1)N[*:1])[*:2]; Aminotetradecanoyl(3R) = CCCCCCCCCCC[C@H](CC(=O)[*:2])N[*:1]; dTyr(3-CF3) = N[C@H](Cc1ccc(O)c(C(F)(F)F)c1)C(=O)O; X1 = O=C(C[C@@H](CCCCCCCCCCC(F)(F)F)N[*:1])[*:2]

Legend:
Candida albicans [1] = assay: microbe, parasite or virus in culture; settings: 24 h, pH 7, read-out: MIC C. albicans
Fusarium graminearum [2] = assay: microbe, parasite or virus in culture; settings: 48 h, pH 7, read-out: MIC F. graminearum
Fusarium graminearum [3] = settings: broth microdilution, RPMI 1640 pH 7, 96-well plates, 28 °C for 48 h, no agitation, visual read-out, lowest concentration with complete inhibition of growth; DMSO max 2.5% v/v; triplicate
Candida albicans [4] = settings: for MIC C. albicans: 24 h, pH 7
[5] = 19F NMR samples in D2O containing Saboraud Dextrose Broth (30 g/L), 5% d6-DMSO added to avoid precipitation
[6] = HPLC retention times compared to parent iturin A2, result in words

Row | SMILES | MIC (Candida albicans [1]) | MIC (Fusarium graminearum [2]) | MIC F. graminearum (Fusarium graminearum [3]) | change in bioactivity against C. albicans compared to iturin A2 (Candida albicans [4]) | MIC C. albicans (Candida albicans [4]) | aqueous solubility [5] | relative lipophilicity (hydrophobicity) by HPLC retention, compared to the natural lipopeptide [6] | relative lipophilicity (hydrophobicity) by HPLC retention, compared to the natural lipopeptide ([6]; listed as o‐CF3‐Tyr)
1 | C[C@@H]1[C@H](O)[C@@H](C)/C=C/C=C/C=C/C=C/C=C/C=C/C=C/[C@H](O[C@@H]2O[C@H](C)[C@@H](O)[C@H](N)[C@@H]2O)C[C@@H]2O[C@](O)(C[C@@H](O)C[C@@H](O)[C@H](O)CC[C@@H](O)C[C@@H](O)CC(=O)O[C@H]1C)C[C@H](O)[C@H]2C(=O)O [Amphotericin B] | 2 µM (≈ 1.85 µg/mL) | 4 µM (≈ 3.7 µg/mL) |  |  |  |  |  | 
2 | NC(=O)CC[C@@H]1NC(=O)[C@@H](CC(N)=O)NC(=O)[C@@H](Cc2ccc(O)cc2)NC(=O)[C@H](CC(N)=O)NC(=O)C[C@@H](CCCCCCCCCCC(F)(F)F)NC(=O)[C@H](CO)NC(=O)[C@@H](CC(N)=O)NC(=O)[C@@H]2CCCN2C1=O [Compound 9, ω‐CF3 iturin A2] (cyclo(N[dY][dN]QP[dN]S[X1])) |  |  | 64 µM (≈ 70.2 µg/mL) | completely retains the bioactivity | 64 µM (≈ 70.2 µg/mL) |  |  | 
3 | CCCCCCCCCCC[C@@H]1CC(=O)N[C@@H](CC(N)=O)C(=O)N[C@H](Cc2ccc(O)c(C(F)(F)F)c2)C(=O)N[C@H](CC(N)=O)C(=O)N[C@@H](CCC(N)=O)C(=O)N2CCC[C@H]2C(=O)N[C@H](CC(N)=O)C(=O)N[C@@H](CO)C(=O)N1 [Compound 10, o‐CF3‐Tyr iturin A2] (cyclo(N[dTyr(3-CF3)][dN]QP[dN]S[Aminotetradecanoyl(3R)])) |  |  | 128 µM (≈ 142 µg/mL) |  | 128 µM (≈ 142 µg/mL) | 50 µM (≈ 55.6 µg/mL) | pronounced increase in lipophilicity | increased proportionally to the increase in fluorine content
4 | CCCCCCCCCCC[C@@H]1CC(=O)N[C@@H](CC(N)=O)C(=O)N[C@H](Cc2cc(C(F)(F)F)c(O)c(C(F)(F)F)c2)C(=O)N[C@H](CC(N)=O)C(=O)N[C@@H](CCC(N)=O)C(=O)N2CCC[C@H]2C(=O)N[C@H](CC(N)=O)C(=O)N[C@@H](CO)C(=O)N1 [Compound 11, di‐o‐CF3‐Tyr iturin A2] (cyclo(N[X2][dN]QP[dN]S[Aminotetradecanoyl(3R)])) |  |  | >128 µM |  | >128 µM |  | increased proportionally to the increase in fluorine content | 
5 | CCCCCCCCCCC[C@@H]1CC(=O)N[C@@H](CC(N)=O)C(=O)N[C@H](Cc2ccc(O)cc2)C(=O)N[C@H](CC(N)=O)C(=O)N[C@@H](CCC(N)=O)C(=O)N2CCC[C@H]2C(=O)N[C@H](CC(N)=O)C(=O)N[C@@H](CO)C(=O)N1 [Synthetic iturin A2, iturin A2, reference compound] (cyclo(N[dY][dN]QP[dN]S[Aminotetradecanoyl(3R)])) |  |  | 16 µM (≈ 16.7 µg/mL) |  | 64 µM (≈ 66.8 µg/mL) |  |  | 
